Measurements reported in US20220347175A1, “PYRIDAZINONE DERIVATIVE” (Sumitomo Dainippon Pharma Co., Ltd., priority 2018, published 2022).

Experiments:
human Nav1.5 = target: T1, human Nav1.5 (Homo sapiens, UniProt Q14524); assay: Amplification of Nav1.5-derived voltage-dependent sodium current (Nav1.5 current), cell line stably expressing human Nav1.5, automated patch clamp; assay type: cell-based; conditions: for activation at 3 µM: compound 3 μmol/L; for activation at 3 µM / activation at 1 µM / activation at 10 µM: read-out: Nav1.5 current amplification rate (%)
T1 construct: expressed in transfected cells; host or cells: CHO-K1 (T-REx System, ThermoFisher Scientific)

human Nav1.1 = target: T2, human Nav1.1 (Homo sapiens, UniProt P35498); assay: Amplification of Nav1.1-derived voltage-dependent sodium current (Nav1.1 current), cell line stably expressing human Nav1.1, automated patch clamp; assay type: cell-based; conditions: for activation at 3 µM: compound 3 μmol/L; for activation at 3 µM / activation at 1 µM / activation at 10 µM: read-out: Nav1.1 current amplification rate (%)
T2 construct: host or cells: HEK293
Method in brief: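 Amplification rate (%) is 100 × post-compound/pre-compound Nav1.1 peak current or AUC, minus 100. Ramp-evoked sodium currents were recorded by automated patch clamp in a human Nav1.1 HEK293 stable line, restricted to cells exceeding 500 pA, with compounds added in extracellular solution containing 1% DMSO.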

[1] = 10 μmol/L compound, change of the area under the curve of Nav1.5 current (Test Result 1)
[2] = 10 μmol/L compound, change of the area under the curve of Nav1.1 current (Test Result 1)
[3] = compound 1 μmol/L, CHO-K1 stably expressing human Nav1.5
[4] = compound 1 μmol/L, HEK293 stably expressing human Nav1.1
[5] = CHO-K1 stably expressing human Nav1.5
[6] = HEK293 stably expressing human Nav1.1

T1 sequence (Q14524 1-2015 isoform Q14524-2): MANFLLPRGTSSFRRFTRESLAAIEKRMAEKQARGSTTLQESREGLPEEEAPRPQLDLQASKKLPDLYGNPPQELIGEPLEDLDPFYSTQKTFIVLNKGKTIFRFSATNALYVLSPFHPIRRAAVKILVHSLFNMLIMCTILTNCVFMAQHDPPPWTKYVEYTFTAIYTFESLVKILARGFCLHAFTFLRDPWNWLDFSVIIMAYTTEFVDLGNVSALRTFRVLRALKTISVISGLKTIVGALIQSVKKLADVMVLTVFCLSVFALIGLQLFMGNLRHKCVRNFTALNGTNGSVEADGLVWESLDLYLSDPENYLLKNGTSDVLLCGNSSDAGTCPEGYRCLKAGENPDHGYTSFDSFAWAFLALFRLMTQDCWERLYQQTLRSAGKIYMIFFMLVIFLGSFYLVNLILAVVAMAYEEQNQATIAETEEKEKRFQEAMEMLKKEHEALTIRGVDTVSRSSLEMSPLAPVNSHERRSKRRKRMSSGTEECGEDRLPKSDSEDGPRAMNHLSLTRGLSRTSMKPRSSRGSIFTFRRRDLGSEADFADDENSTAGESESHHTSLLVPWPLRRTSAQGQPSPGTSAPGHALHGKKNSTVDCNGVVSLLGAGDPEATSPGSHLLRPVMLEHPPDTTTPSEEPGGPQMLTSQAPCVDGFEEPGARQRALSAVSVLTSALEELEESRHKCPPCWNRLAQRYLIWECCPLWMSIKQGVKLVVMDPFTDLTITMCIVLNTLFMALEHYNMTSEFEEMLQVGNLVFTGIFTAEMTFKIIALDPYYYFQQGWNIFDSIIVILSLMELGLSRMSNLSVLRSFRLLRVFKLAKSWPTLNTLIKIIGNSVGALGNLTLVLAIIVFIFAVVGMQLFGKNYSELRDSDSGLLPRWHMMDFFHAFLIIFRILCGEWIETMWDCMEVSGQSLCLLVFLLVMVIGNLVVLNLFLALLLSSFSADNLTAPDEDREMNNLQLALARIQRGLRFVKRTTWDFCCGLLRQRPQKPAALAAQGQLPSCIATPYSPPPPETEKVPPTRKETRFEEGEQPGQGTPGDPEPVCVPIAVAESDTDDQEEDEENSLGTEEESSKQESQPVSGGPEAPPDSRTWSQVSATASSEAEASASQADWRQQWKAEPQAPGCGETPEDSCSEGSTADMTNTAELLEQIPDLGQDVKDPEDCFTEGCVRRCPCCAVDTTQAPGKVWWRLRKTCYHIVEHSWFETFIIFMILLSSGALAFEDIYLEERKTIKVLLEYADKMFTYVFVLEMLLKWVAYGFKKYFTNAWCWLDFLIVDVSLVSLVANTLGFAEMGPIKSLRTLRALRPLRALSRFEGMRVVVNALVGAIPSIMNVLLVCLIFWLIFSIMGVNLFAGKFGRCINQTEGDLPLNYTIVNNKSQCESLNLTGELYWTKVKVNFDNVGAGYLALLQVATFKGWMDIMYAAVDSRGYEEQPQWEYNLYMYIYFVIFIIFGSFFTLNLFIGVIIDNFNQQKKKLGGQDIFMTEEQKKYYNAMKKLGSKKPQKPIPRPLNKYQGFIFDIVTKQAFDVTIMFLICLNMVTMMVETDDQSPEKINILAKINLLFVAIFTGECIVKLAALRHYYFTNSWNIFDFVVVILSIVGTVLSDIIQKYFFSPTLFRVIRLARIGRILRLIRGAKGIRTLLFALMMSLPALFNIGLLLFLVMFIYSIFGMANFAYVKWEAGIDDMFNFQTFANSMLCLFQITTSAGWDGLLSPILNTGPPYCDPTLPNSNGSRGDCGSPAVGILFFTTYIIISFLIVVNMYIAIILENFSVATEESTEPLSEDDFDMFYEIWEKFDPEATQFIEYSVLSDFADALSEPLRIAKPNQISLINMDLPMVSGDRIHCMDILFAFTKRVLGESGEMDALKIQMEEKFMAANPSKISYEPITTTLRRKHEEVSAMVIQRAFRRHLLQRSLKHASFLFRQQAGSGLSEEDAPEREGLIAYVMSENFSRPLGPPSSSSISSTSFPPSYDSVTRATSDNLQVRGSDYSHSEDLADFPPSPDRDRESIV

SMILES | Nav1.5 current amplification rate (%) (human Nav1.5; [1]) | Nav1.1 current amplification rate (%) (human Nav1.1; [2]) | activation at 1 µM (human Nav1.5; [3]) [%] | activation at 1 µM (human Nav1.1; [4]) [%] | other results
O=C(Cn1nc(C2=CCCCC2)ccc1=O)Nc1ccn2ccnc2c1 [Example 458] | 0 | 24 | – | – | –
COc1cc(=O)n(CC(=O)Nc2ccn3ccnc3c2)nc1C1=CCC(C)(C)CC1 [Example 459] | 21 | 118 | – | – | –
Cc1cc(C2=CCC(C)(C)CC2)nn(CC(=O)Nc2ccn3ccnc3c2)c1=O [Example 460] | 46 | 221 | – | – | –
Cc1cc(=O)n(CC(=O)Nc2ccn3ccnc3c2)nc1C1=CCC(C)(C)CC1 [Example 461] | 50 | 337 | – | – | –
COc1cc(C2=CCC(C(F)(F)F)CC2)nn(CC(=O)Nc2ccn3ccnc3c2)c1=O (stereo not drawn) [Example 462] | 5 | 124 | – | – | –
COc1cc(C2=CCC(C)CC2)nn(CC(=O)Nc2ccn3ccnc3c2)c1=O (stereo not drawn) [Example 463] | 9 | 218 | – | – | –
O=C(Cn1nc(C2=CCC(F)(F)CC2)ccc1=O)Nc1ccn2ccnc2c1 [Example 464] | 1 | 18 | – | – | –
CC1(C)CC=C(c2ccc(=O)n(CC(=O)Nc3ccn4ccnc4c3)n2)C1 [Example 465] | 8 | 186 | – | – | –
COc1cc(-c2cc(Cl)cs2)nn(CC(=O)Nc2ccn3ccnc3c2)c1=O [Example 466] | 38 | 233 | – | – | –
COc1cc(C2=CCC(C)(C)CC2)nn(CC(=O)N2CCc3c(N4CCOCC4)cccc32)c1=O [Example 468] | – | – | – | – | Nav1.5 current amplification rate (%) (human Nav1.5; [3]): 75%; Nav1.1 current amplification rate (%) (human Nav1.1; [4]): 275%
O=C(Cn1nc(C2=CCC(F)(F)CC2)ccc1=O)N1CCc2c(N3CCOCC3)cccc21 [Example 469] | 25 | 243 | – | – | –
COc1cc(=O)n(CC(=O)N2CCc3c(N4CCOCC4)cccc32)nc1C1=CCC(C)(C)CC1 [Example 470] | 131 | 522 | – | – | –
CC1(C)CC=C(c2ccc(=O)n(CC(=O)N3CCc4c(N5CCOCC5)cccc43)n2)C1 [Example 475] | 70 | 633 | – | – | –
COc1cc(-c2cc(Cl)cs2)nn(CC(=O)N2CCc3c(N4CCOCC4)cccc32)c1=O [Example 479] | 135 | 420 | – | – | –
O=C(Cn1nc(C2=CCCCC2)ccc1=O)N1CCc2c(N3CCOCC3)cccc21 [Example 480] | – | – | – | – | Nav1.5 current amplification rate (%) (human Nav1.5; [3]): 7%; Nav1.1 current amplification rate (%) (human Nav1.1; [4]): 110%
CC1(C)CC=C(c2ccc(=O)n(CC(=O)N3CCN(c4cncc(F)c4)CC3)n2)C1 [Example 483] | 7 | 175 | – | – | –
COc1cc(C2=CCC(C)C2)nn(CC(=O)N2CCN(c3cncc(F)c3)CC2)c1=O (stereo not drawn) [Example 485] | 3 | 264 | – | – | –
O=C(Cn1nc(C2=CCC(F)(F)CC2)ccc1=O)N1CCN(c2cncc(F)c2)CC1 [Example 489] | 0 | 29 | – | – | –
COc1cc(=O)n(CC(=O)N2CCN(c3cncc(F)c3)CC2)nc1C1=CCC(C)(C)CC1 [Example 490] | 25 | 469 | – | – | –
COc1nc2cc(NC(=O)Cn3nc(C4=CCC(C)(C)CC4)c(OC)cc3=O)ccc2o1 [Example 491] | – | – | – | – | activation at 3 µM (human Nav1.5; [5]): 22%; activation at 3 µM (human Nav1.1; [6]): 157%
COc1cc(=O)n(CC(=O)Nc2ccc3oc(C)nc3c2)nc1C1=CCC(C)(C)CC1 [Example 492] | – | – | – | – | activation at 3 µM (human Nav1.5; [5]): 16%; activation at 3 µM (human Nav1.1; [6]): 222%
COc1cc(=O)n(CC(=O)Nc2ccc3oc(C(F)F)nc3c2)nc1C1=CCC(C)(C)CC1 [Example 493] | – | – | – | – | activation at 3 µM (human Nav1.5; [5]): 20%; activation at 3 µM (human Nav1.1; [6]): 317%
COc1nc2cc(NC(=O)Cn3nc(C4=CCC(C)(C)CC4)c(OC)cc3=O)cc(F)c2o1 [Example 494] | – | – | – | – | activation at 3 µM (human Nav1.5; [5]): 26%; activation at 3 µM (human Nav1.1; [6]): 255%
Cc1cc(=O)n(CC(=O)Nc2ccn3ncnc3c2)nc1C1=CCC(C)CC1 (stereo not drawn) [Example 502] | – | – | 7 | 49 | –

SMILES | Nav1.5 current amplification rate (%) (human Nav1.5; [1]) | Nav1.1 current amplification rate (%) (human Nav1.1; [2]) | activation at 1 µM (human Nav1.5; [3]) [%] | activation at 1 µM (human Nav1.1; [4]) [%] | other results
Cc1cc(=O)n(CC(=O)Nc2ccn3ncnc3c2)nc1C1=CCC(C)(C)CC1 [Example 503] | – | – | 10 | 58 | –
CC1(C)CC=C(c2ccc(=O)n(CC(=O)N3CCN(c4cccnc4)CC3)n2)C1 [Example 508] | – | – | – | – | activation at 10 µM (human Nav1.5; [1]): -3%; activation at 10 µM (human Nav1.1; [2]): 24%
O=C(Cn1nc(C2=CCC3(CC2)CC3(F)F)ccc1=O)N1CCN(c2cncc(C(F)(F)F)c2)CC1 (stereo not drawn) [Example 509] | – | – | – | – | activation at 3 µM (human Nav1.5; [5]): 5%; activation at 3 µM (human Nav1.1; [6]): 238%
COc1ncc(C2=CCN(C(=O)Cn3nc(C4=CCC(C(F)(F)F)CC4)ccc3=O)CC2)cn1 (stereo not drawn) [Example 510] | – | – | – | – | activation at 3 µM (human Nav1.5; [5]): 7%; activation at 3 µM (human Nav1.1; [6]): 50%
COc1ccc(N2CCN(C(=O)Cn3nc(C4=CCC(C(F)(F)F)CC4)ccc3=O)CC2)cn1 (stereo not drawn) [Example 511] | – | – | – | – | activation at 3 µM (human Nav1.5; [5]): 6%; activation at 3 µM (human Nav1.1; [6]): 37%
O=C(Cn1nc(C2=CCC3(CC2)CC3)ccc1=O)Nc1ccn2ncnc2c1 [Example 512, 2-[6-oxo-3-(spiro[2.5]oct-5-en-6-yl)pyridazin-1(6H)-yl]-N-([1,2,4]triazolo[1,5-a]pyridin-7-yl)acetamide] | – | – | 34 | 103 | –
Cc1cc(C2=CCC(C)(C)CC2)nn(CC(=O)N2CCN(c3cccnc3)CC2)c1=O [Example 513] | – | – | – | – | activation at 10 µM (human Nav1.5; [1]): 4%; activation at 10 µM (human Nav1.1; [2]): 262%
O=C(Cn1nc(C2=CCCCC2)ccc1=O)N1CCc2c(Cn3ccnc3)cccc21 [Example 515] | – | – | 287 | 255 | –
Cc1ccc(-c2ccc(=O)n(CC(=O)N3CCc4c(C5CN(C6COC6)C5)cccc43)n2)cc1 [Example 516] | – | – | 13 | 130 | –
O=C(Cn1nc(C2=CCCCC2)ccc1=O)N1CCc2c(-c3ccnnc3)cccc21 [Example 517] | – | – | 16 | 359 | –
Cc1ncc(-c2cccc3c2CCN3C(=O)Cn2nc(C3=CCCCC3)ccc2=O)cn1 [Example 518] | – | – | 9 | 344 | –
CC(=O)N1CC(c2cccc3c2CCN3C(=O)Cn2nc(-c3ccc(C)cc3)ccc2=O)C1 [Example 520] | – | – | 252 | 253 | –
O=C(Cn1nc(C2=CCCCC2)ccc1=O)N1CCc2c(-c3cnccn3)cccc21 [Example 521] | – | – | 9 | 358 | –
O=C(Cn1nc(C2=CCCCC2)ccc1=O)N1CCc2c(-c3cncnc3)cccc21 [Example 522] | – | – | 25 | 367 | –
O=C(Cn1nc(C2=CCCC2)ccc1=O)N1CCc2c(-c3ccnnc3)cccc21 [Example 523] | – | – | 5 | 129 | –
O=C(Cn1nc(C2=CCCC2)ccc1=O)N1CCc2c(-c3cccnc3)cccc21 [Example 524] | – | – | 5 | 143 | –
O=C(Cn1nc(C2=CCC3(CC2)CC3)ccc1=O)N1CCc2c(-c3ccnnc3)cccc21 [Example 526, 2-{2-oxo-2-[4-(pyridazin-4-yl)-2.3-dihydro-1H-indol-1-yl]ethyl}-6-(spiro[2.5]oct-5-en-6-yl)pyridazin-3(2H)one] | – | – | 1 | 499 | –
O=C(Cn1nc(C2=CCC(F)(F)CC2)ccc1=O)N1CCc2c(-c3ccnnc3)cccc21 [Example 527] | – | – | 36 | 324 | –
O=C(Cn1nc(C2=CCCCC2)ccc1=O)N1CCc2c(C3=CCOCC3)cccc21 [Example 528] | – | – | 24 | 198 | –
CC1CC=C(c2ccc(=O)n(CC(=O)Nc3ccc4ocnc4c3)n2)CC1 (stereo not drawn) [Example 531, N-(1,3-benzooxazol-5-yl)-2-[3-(4-methylcyclohex-1-en-1-yl)-6-oxopyridazin-1(6H)-yl]acetamide] | – | – | 8 | 183 | –
CC1CC=C(c2ccc(=O)n(CC(=O)Nc3ccn4ccnc4c3)n2)CC1 (stereo not drawn) [Example 532] | – | – | – | – | activation at 10 µM (human Nav1.5; [1]): 47%; activation at 10 µM (human Nav1.1; [2]): 239%
C[C@@H]1CC=C(c2ccc(=O)n(CC(=O)Nc3ccn4ncnc4c3)n2)CC1 [Example 537, 2-{3-[(4S)-4-methylcyclohex-1-en-1-yl]-6-oxopyridazin-1(6H)-yl}-N-([1,2,4]triazolo[1,5-a]pyridin-7-yl)acetamide] | – | – | 29 | 99 | –
C[C@H]1CC=C(c2ccc(=O)n(CC(=O)Nc3ccn4ncnc4c3)n2)CC1 [Example 538, 2-{3-[(4R)-4-methylcyclohex-1-en-1-yl]-6-oxopyridazin-1(6H)-yl}-N-([1,2,4]triazolo[1,5-a]pyridin-7-yl)acetamide] | – | – | 45 | 135 | –
C[C@@H]1CC=C(c2ccc(=O)n(CC(=O)Nc3ccc4ncnn4c3)n2)CC1 [Example 539, 2-{3-[(4S)-4-methylcyclohex-1-en-1-yl]-6-oxopyridazin-1(6H)-yl}-N-([1,2,4]triazolo[1,5-a]pyridin-6-yl)acetamide] | – | – | 11 | 80 | –
